Results published in ChEMBL document CHEMBL3885881, “DrugMatrix”.

Species: Rattus norvegicus
Assay: DrugMatrix - Regimen: Daily Repeat
Type: toxicity, organism-based, Sprague-Dawley
Set-up: regimen Daily Repeat, gender Male, age 6-8 weeks
Details: in vivo, po, route oral GAVAGE, vehicle .5 % CMC; for ABSOLUTE BASOPHIL / ABSOLUTE EOSINOPHIL / ABSOLUTE LYMPHOCYTE / ABSOLUTE MONOCYTE / ABSOLUTE SEGMENTED NEUTROPHIL / BASOPHIL / EOSINOPHIL / ERYTHROCYTE COUNT / HEMATOCRIT / HEMOGLOBIN / LEUKOCYTE COUNT / LYMPHOCYTE / MEAN CORPUSCULAR HEMOGLOBIN / MEAN CORPUSCULAR HEMOGLOBIN CONCENTRATION / MEAN CORPUSCULAR VOLUME / MONOCYTE / NEUTROPHIL / NUCLEATED RED BLOOD CELLS / PLATELET COUNT: tissue Blood; for ALANINE AMINOTRANSFERASE / ALBUMIN / ALKALINE PHOSPHATASE / ASPARTATE AMINOTRANSFERASE / BLOOD UREA NITROGEN / CARBON DIOXIDE / CHLORIDE / CHOLESTEROL / CREATINE PHOSPHOKINASE / CREATININE / GLUCOSE / LACTATE DEHYDROGENASE / LIPASE / PHOSPHORUS / POTASSIUM / SODIUM / TOTAL BILIRUBIN / TOTAL PROTEIN / URIC ACID: tissue Plasma
[1] = 580 mg/kg, 120 h, dose level High, time 5 day
[2] = […], 72 h, dose 2.4 mg/Kg, dose level Low, time 3 day
[3] = […], 120 h, dose 2.4 mg/Kg, dose level Low, time 5 day

CN1C(=O)COc2c(C(=O)NC3CN4CCC3CC4)cc(Cl)cc21 (centres undefined) [AZASETRON]
ABSOLUTE BASOPHIL [1]: 0 CELLS/uL
ABSOLUTE EOSINOPHIL [1]: 63.33 CELLS/uL
ABSOLUTE LYMPHOCYTE [1]: 14100 CELLS/uL
ABSOLUTE MONOCYTE [1]: 291 CELLS/uL
ABSOLUTE SEGMENTED NEUTROPHIL [1]: 979 CELLS/uL
BASOPHIL [1]: 0%
EOSINOPHIL [1]: 0.33%
ERYTHROCYTE COUNT [1]: 6.34 x10E6/uL
HEMATOCRIT [1]: 38%
HEMOGLOBIN [1]: 15.07 G/DL
LEUKOCYTE COUNT [1]: 15.43 x10E3/uL
LYMPHOCYTE [1]: 91.67%
MEAN CORPUSCULAR HEMOGLOBIN [1]: 23.8 pg
MEAN CORPUSCULAR HEMOGLOBIN CONCENTRATION [1]: 39.67 G/DL
MEAN CORPUSCULAR VOLUME [1]: 60 fL
MONOCYTE [1]: 2%
NEUTROPHIL [1]: 6%
NUCLEATED RED BLOOD CELLS [1]: 0 /100WBC
PLATELET COUNT [1]: 1316.67 x10E3/uL
ALANINE AMINOTRANSFERASE [1]: 58.33 u/L
ALBUMIN [1]: 4.3 G/DL
ALKALINE PHOSPHATASE [1]: 295 u/L
ASPARTATE AMINOTRANSFERASE [1]: 101.33 u/L
BLOOD UREA NITROGEN [1]: 21.67 mg/dL
CARBON DIOXIDE [1]: 24 mmol/L
CHLORIDE [1]: 100.67 MEQ/L
CHOLESTEROL [1]: 74.33 mg/dL
CREATINE PHOSPHOKINASE [1]: 955.33 u/L
CREATININE [1]: 0.23 mg/dL
GLUCOSE [1]: 160 mg/dL
LACTATE DEHYDROGENASE [1]: 604.33 u/L
LIPASE [1]: 10.33 u/L
PHOSPHORUS [1]: 12.33 mg/dL
POTASSIUM [1]: 6.37 MEQ/L
SODIUM [1]: 144.33 MEQ/L
TOTAL BILIRUBIN [1]: 0.2 mg/dL
TOTAL PROTEIN [1]: 6.2 G/DL
URIC ACID [1]: 2.43 mg/dL
ABSOLUTE BASOPHIL [2]: 0 CELLS/uL
ABSOLUTE EOSINOPHIL [2]: 0 CELLS/uL
ABSOLUTE LYMPHOCYTE [2]: 13884.67 CELLS/uL
ABSOLUTE MONOCYTE [2]: 148 CELLS/uL
ABSOLUTE SEGMENTED NEUTROPHIL [2]: 1867.33 CELLS/uL
BASOPHIL [2]: 0%
EOSINOPHIL [2]: 0%
ERYTHROCYTE COUNT [2]: 5.62 x10E6/uL
HEMATOCRIT [2]: 34.23%
HEMOGLOBIN [2]: 13.3 G/DL
LEUKOCYTE COUNT [2]: 15.9 x10E3/uL
LYMPHOCYTE [2]: 87.33%
MEAN CORPUSCULAR HEMOGLOBIN [2]: 23.7 pg
MEAN CORPUSCULAR HEMOGLOBIN CONCENTRATION [2]: 38.87 G/DL
MEAN CORPUSCULAR VOLUME [2]: 60.97 fL
MONOCYTE [2]: 1%
NEUTROPHIL [2]: 11.67%
NUCLEATED RED BLOOD CELLS [2]: 0 /100WBC
PLATELET COUNT [2]: 1219.67 x10E3/uL
ALANINE AMINOTRANSFERASE [2]: 63.67 u/L
ALBUMIN [2]: 4.13 G/DL
ALKALINE PHOSPHATASE [2]: 374.67 u/L
ASPARTATE AMINOTRANSFERASE [2]: 87.33 u/L
BLOOD UREA NITROGEN [2]: 18.33 mg/dL
CARBON DIOXIDE [2]: 30.67 mmol/L
CHLORIDE [2]: 98.33 MEQ/L
CHOLESTEROL [2]: 73 mg/dL
CREATINE PHOSPHOKINASE [2]: 308.67 u/L
CREATININE [2]: 0.17 mg/dL
GLUCOSE [2]: 148.33 mg/dL
LACTATE DEHYDROGENASE [2]: 222 u/L
LIPASE [2]: 10 u/L
PHOSPHORUS [2]: 11.57 mg/dL
POTASSIUM [2]: 6.45 MEQ/L
SODIUM [2]: 141.9 MEQ/L
TOTAL BILIRUBIN [2]: 0.17 mg/dL
TOTAL PROTEIN [2]: 5.83 G/DL
URIC ACID [2]: 1.37 mg/dL
ABSOLUTE BASOPHIL [3]: 0 CELLS/uL
ABSOLUTE EOSINOPHIL [3]: 0 CELLS/uL
ABSOLUTE LYMPHOCYTE [3]: 13149.67 CELLS/uL
ABSOLUTE MONOCYTE [3]: 243.33 CELLS/uL
ABSOLUTE SEGMENTED NEUTROPHIL [3]: 1007 CELLS/uL
BASOPHIL [3]: 0%
EOSINOPHIL [3]: 0%
ERYTHROCYTE COUNT [3]: 5.6 x10E6/uL
HEMATOCRIT [3]: 35%
HEMOGLOBIN [3]: 14 G/DL
LEUKOCYTE COUNT [3]: 14.4 x10E3/uL
LYMPHOCYTE [3]: 91.33%
MEAN CORPUSCULAR HEMOGLOBIN [3]: 25.1 pg
MEAN CORPUSCULAR HEMOGLOBIN CONCENTRATION [3]: 40 G/DL
MEAN CORPUSCULAR VOLUME [3]: 62.67 fL
MONOCYTE [3]: 1.67%
NEUTROPHIL [3]: 7%
NUCLEATED RED BLOOD CELLS [3]: 0 /100WBC
PLATELET COUNT [3]: 1192 x10E3/uL
ALANINE AMINOTRANSFERASE [3]: 54.33 u/L
ALBUMIN [3]: 4.1 G/DL
ALKALINE PHOSPHATASE [3]: 274.67 u/L
ASPARTATE AMINOTRANSFERASE [3]: 82 u/L
BLOOD UREA NITROGEN [3]: 18.67 mg/dL
CARBON DIOXIDE [3]: 28.67 mmol/L
CHLORIDE [3]: 99.67 MEQ/L
CHOLESTEROL [3]: 72 mg/dL
CREATINE PHOSPHOKINASE [3]: 240 u/L
CREATININE [3]: 0.19 mg/dL
GLUCOSE [3]: 154.67 mg/dL
LACTATE DEHYDROGENASE [3]: 169 u/L
LIPASE [3]: 10 u/L
PHOSPHORUS [3]: 10.83 mg/dL
POTASSIUM [3]: 6.08 MEQ/L
SODIUM [3]: 143.3 MEQ/L
TOTAL BILIRUBIN [3]: 0.27 mg/dL
TOTAL PROTEIN [3]: 6 G/DL
URIC ACID [3]: 1.3 mg/dL
